According to patent US20060281806A1, “Treatment and inhibition of disease conditions using flexible heteroarotinoids” (priority 2005, published 2006):
“Also recorded” adds a separate entry of the source.

Columns and labels:
[1] = test system: SiHa human cervical cell line; assay: In vitro cytotoxicity (SRB growth inhibition) assay, SiHa; format: cell-based; design: dose or concentration left out as unconfirmed; details: 72 h
Experimental: The SHetA2, SHetA3, SHetA4, SHet50 and 9-cis-RA compounds were evaluated in 4 cervical carcinoma cell lines. The SiHa, CC-1 and C33a human cervical cell lines were maintained in Minimal Essential Media (MEM) containing Earle's salts and L-glutamine supplemented with nonessential amino acids, 1% sodium pyruvate, 10% fetal bovine serum (FBS) and antibiotic/antimycotic. The HT-3 cervical carcinoma cell line was cultured in McCoy's 5a medium supplemented with 10% FBS and antibiotic/antimycotic. Cells were inoculated into 96 well microtiter plates at densities of 1000 cells/well and incubated for 24 h prior to addition of drugs. Drugs were dissolved in dimethyl sulfoxide (DMSO) and diluted in complete medium, prior to addition to triplicate culture wells to achieve final concentrations of […]. Following drug addition, the plates were incubated for 72 h. The assay was terminated by the addition of cold TCA and the cells were stained with 0.4% sulforhodamine B (SRB) in 1% acetic acid. Bound stain was subsequently solubilized with 10 mM trizma base, and the absorbance was read on an automated plate reader at a wavelength of 560 nm. Growth inhibition was determined by dividing the average Optical Density (OD) of the triplicated treated cultures by the average OD of the triplicate control cultures treated with DMSO solvent only. This ratio was converted into a percentage by multiplying by 100. The potency (concentration required to induce half of the maximal activity—GI50) were derived from dose-response graphs generated with results from 3 to 5 individual experiments using GraphPad Software.

[2] = test system: NCI human tumor cell line panel; assay: SHetA2 cytotoxicity in NCI human tumor cell line panel; format: cell-based; details: 48 h
Experimental: The SHetA2 compound was evaluated in the National Cancer Institute (NCI) human tumor cell line panel by the Developmental Therapeutics Program (DTP). The human tumor cell lines were grown in RPMI 1640 medium containing 5% fetal bovine serum and 2 mM L-glutamine. Cells were inoculated into 96 well microtiter plates at densities ranging from 5,000 to 40,000 cells/well depending on the doubling time of individual cell lines and incubated for 24 h prior to addition of SHetA2. After 24 h, two plates of each cell line were fixed in situ with TCA, to represent a measurement of the cell population for each cell line at the time of drug addition (Tz). Drugs were dissolved in dimethyl sulfoxide (DMSO) and diluted in complete medium containing 50 μg/ml gentamicin, prior to addition to the culture wells. […] […] The absorbance was read on an automated plate reader at a wavelength of 515 nm. Using the seven absorbance measurements (time zero, (Tz), control growth, (C), and test growth in the presence of drug at the five concentration levels (Ti)), the GI50 was calculated from [(Ti−Tz)/(C−Tz)]×100=50. […]

[3] = Alanine aminotransferase (ALT) activity in plasma of mice; format: in vivo, mouse; details: end of treatment, 10 mg/kg/day by gavage
Experimental: At the end of the treatment period, blood was drawn from each animal. Plasma was separated by centrifugation and stored at −70° C. The activity of ALT was determined in aliquots of plasma by standard spectrophotometric enzymatic techniques which are based on the reduction of pyruvate by lactate dehydrogenase (28). The method measures NADH disappearance with time of incubation at 37° C. The activities are expressed as mm/L/min. Two different amounts of plasma were used in each assay to assure measurement of the maximum rate.

[4] = test system: EAhy.926 endothelial cells; assay: Endothelial tube branching on matrigel; format: cell-based; details: various concentrations (1, 5, 10 μM); scored after twenty hours
From the text: The graph on the left provides quantification of the endothelial branches for each treatment dose.

[5] = test system: A2780 ovarian xenograft tumors; assay: A2780 ovarian xenograft tumor model; format: in vivo, mouse; details: oral 60 mg/kg/day
Experimental: FIG. 12. Various Xenograft tumors stained with CD34 antibodies (brown) to identify endothelium. The B16 mouse melanoma cell line was established as a syngeneic tumor in an immunocompetent mouse model and the human Caki renal cancer and A2780 ovarian xenograft tumors in immunocompromised mice. The treated mice were gavaged with 60 mg/kg/day SHetA2 and the untreated were gavaged with solvent only. The tumors were excised and sections were stained with the anti-CD34 antibody to detect endothelial cells (brown stain).
Survival was the primary endpoint of those studies. […] Tumor growth was the primary endpoint of the renal cancer study.

[6] = test system: ovarian carcinoma organotypic cultures; assay: Organotypic culture model of ovarian tumors; format: cell-based, human; details: 1 μM retinoid in media; 3, 7 or 14 days
Experimental: FIG. 17. Retinoid effects on ovarian carcinoma organotypic cultures. Organotypic cultures of OVCAR-3 (A, B, E, F, I and J), Caov-3 (C and G), SK-OV-3 (D and H), and O2 (K and L) were grown in the absence (−, top row and K) or presence (+, middle row and I, J and L) of retinoid HetA4 at a concentration of 1 μM in the media. All sections were stained with H&E except for I, which was stained with PAS to detect glycoproteins and glandular differentiantion, and J, which was stained with the TUNEL assay to detect apoptosis. All magnifications are 40×.
To test our hypotheses, we evaluated the effects of clinically achievable concentrations of 4-HPR and Flex-Hets on growth, differentiation and apoptosis in ovarian tissue. A series of compounds with a variety of receptor activation profiles were evaluated. In order to evaluate therapeutic effects, we developed an organotypic culture model of ovarian tumors by growing established cell lines and primary cultures inside collagen gels. Monolayer cultures of cells are not accurate representations of in vivo tissue because they lack the types of interactions that cells have with other cells and with the extracellular matrix in vivo. These interactions are known to influence gene expression and thus the constitution and behavior of cells. In our organotypic model, the growth of tumor cells inside the collagen allows a representation of tumors that have invaded stromal tissue. In the presence of fibroblasts, established cell lines and primary cultures of ovarian cancer formed colonies inside the collagen, while normal or benign ovarian epithelial cells remained as single cells inside the collagen. Human ovarian cancer cell lines (OVCAR-3, Caov-3, SK-OV-3, A2780, UCI 101) and primary human cultures (borderline ovarian tumor (O1), serous papillary tumor (O2), benign ovarian cyst (O3)) were cultured inside and on top of a collagen gel seeded with 3T3 fibroblasts for one week. After further incubation in the presence or absence of 1 μM retinoid (media concentration) for 3, 7 or 14 days, cultures were fixed and sectioned for immunohistochemical analysis.

## CC1(C)CC(C)(C)c2cc(NC(=S)Nc3ccc([N+](=O)[O-])cc3)ccc2S1 [SHetA2]
[1]
  Efficacy: percent growth inhibition relative to the untreated control: 68%
[2]; 10 and 100 μM SHetA2, majority of cell lines
  percent growth: negative percent growth levels
[2]; 55 cell lines representing 9 cancer types
  GI50 values: micromolar range
[3]
  ALT Activity: 118.5 ± 153.4 mm/liter/min
[4]
  endothelial tube branching (in vitro angiogenesis): dose-responsive inhibition of angiogenesis
[5]; ovarian cancer model
  survival: improved survival
[5]; ovarian
  development of blood vessels inside tumors (anti-CD34 staining): inhibited the development of blood vessels
[6]
  induction of apoptosis (TUNEL) in organotypic cultures: Apoptosis was induced; also recorded: highest level of apoptosis
  regulation of growth, differentiation and apoptosis, rank among eleven retinoids: most potent regulator of growth, differentiation and apoptosis
